Data published in PubChem BioAssay AID624326 (Sanford-Burnham Center for Chemical Genomics, 2012).
Activity calls are given as the source filed them.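 How the source made its calls: active means half-inhibitory concentration against fatty acid synthase thioesterase at or below 20 µM; inactive means the rest.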

Target: Fatty acid synthase (Homo sapiens) (UniProt P49327)
Experiment: inhibition of human FAS-TE enzyme activity – biochemical, kinetic fluorescence intensity, dose response (AID 624326)
Settings: recombinant FAS-TE, OMFH fluorogenic substrate

Fatty acid synthase (Homo sapiens), sequence (P49327 whole entry, looked up): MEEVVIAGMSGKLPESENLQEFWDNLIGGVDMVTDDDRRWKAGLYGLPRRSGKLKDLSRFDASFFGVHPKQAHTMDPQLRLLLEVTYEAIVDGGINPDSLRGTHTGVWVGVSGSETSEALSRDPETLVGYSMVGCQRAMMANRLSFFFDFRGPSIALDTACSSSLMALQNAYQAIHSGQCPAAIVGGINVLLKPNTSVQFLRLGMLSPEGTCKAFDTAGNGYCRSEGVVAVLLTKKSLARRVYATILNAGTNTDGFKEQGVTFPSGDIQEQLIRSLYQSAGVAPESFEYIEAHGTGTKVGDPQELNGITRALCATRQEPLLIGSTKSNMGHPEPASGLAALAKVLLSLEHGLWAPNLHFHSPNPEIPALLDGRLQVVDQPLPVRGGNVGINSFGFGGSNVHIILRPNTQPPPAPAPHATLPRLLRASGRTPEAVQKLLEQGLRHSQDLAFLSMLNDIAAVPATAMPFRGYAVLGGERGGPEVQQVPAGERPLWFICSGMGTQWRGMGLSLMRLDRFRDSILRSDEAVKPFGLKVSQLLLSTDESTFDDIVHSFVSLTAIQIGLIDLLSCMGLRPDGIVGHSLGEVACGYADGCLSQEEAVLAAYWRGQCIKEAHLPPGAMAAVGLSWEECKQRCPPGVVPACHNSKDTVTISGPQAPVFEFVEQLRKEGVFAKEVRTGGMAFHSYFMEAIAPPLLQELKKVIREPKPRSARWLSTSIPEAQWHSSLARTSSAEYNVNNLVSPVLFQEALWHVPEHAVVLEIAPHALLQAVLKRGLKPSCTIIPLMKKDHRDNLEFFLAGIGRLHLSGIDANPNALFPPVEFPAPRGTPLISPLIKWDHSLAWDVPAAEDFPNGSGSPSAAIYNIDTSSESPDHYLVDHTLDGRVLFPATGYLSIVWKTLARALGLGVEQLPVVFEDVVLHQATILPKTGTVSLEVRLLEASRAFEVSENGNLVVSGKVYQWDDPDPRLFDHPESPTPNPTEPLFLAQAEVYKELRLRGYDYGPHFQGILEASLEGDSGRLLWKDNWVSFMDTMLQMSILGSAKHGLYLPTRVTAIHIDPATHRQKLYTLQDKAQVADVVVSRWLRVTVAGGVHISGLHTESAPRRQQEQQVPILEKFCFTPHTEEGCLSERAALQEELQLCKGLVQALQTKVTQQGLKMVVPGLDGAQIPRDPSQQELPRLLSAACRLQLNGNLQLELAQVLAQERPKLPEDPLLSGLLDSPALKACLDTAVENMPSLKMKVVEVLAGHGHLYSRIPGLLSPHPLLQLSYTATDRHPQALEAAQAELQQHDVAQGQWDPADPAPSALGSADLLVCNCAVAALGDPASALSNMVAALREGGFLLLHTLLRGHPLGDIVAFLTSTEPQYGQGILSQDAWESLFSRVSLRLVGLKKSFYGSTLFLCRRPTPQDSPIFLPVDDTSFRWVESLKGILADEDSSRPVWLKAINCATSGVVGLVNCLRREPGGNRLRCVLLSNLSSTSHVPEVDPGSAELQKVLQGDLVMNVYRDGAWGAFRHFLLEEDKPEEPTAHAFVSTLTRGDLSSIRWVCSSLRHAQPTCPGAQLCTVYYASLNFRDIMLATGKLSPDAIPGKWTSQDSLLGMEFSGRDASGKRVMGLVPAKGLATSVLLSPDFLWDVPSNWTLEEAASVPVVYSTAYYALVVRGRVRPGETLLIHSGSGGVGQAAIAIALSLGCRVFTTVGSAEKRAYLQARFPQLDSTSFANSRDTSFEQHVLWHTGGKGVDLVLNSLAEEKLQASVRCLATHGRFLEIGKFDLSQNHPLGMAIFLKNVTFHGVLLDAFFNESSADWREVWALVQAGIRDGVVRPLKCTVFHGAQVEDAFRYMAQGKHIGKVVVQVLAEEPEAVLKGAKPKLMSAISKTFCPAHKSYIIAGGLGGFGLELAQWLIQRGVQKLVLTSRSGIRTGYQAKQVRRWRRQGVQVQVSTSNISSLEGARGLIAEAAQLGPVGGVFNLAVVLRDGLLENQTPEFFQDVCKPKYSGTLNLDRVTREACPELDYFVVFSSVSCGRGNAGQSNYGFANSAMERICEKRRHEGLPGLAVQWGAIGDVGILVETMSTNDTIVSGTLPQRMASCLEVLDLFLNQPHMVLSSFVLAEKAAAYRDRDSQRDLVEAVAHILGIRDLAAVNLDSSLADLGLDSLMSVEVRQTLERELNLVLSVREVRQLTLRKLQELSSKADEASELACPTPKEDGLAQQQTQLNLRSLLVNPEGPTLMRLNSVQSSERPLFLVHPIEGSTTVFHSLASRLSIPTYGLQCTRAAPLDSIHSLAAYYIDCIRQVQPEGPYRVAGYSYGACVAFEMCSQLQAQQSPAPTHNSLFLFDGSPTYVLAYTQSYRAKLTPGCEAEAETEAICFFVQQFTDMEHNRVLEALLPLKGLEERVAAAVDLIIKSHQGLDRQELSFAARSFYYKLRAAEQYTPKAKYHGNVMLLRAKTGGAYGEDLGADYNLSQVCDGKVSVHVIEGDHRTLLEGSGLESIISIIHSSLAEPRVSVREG

## CCCCC(=O)Nc1nc(-c2ccc(S(=O)(=O)N3CCOCC3)cc2)cs1
  IC50: 206 nM

## CCC(C)(C)C1CCC(=NNS(=O)(=O)c2ccc(C)c([N+](=O)[O-])c2)CC1 (configuration not stated)
  IC50: inactive
